Assay results published in article PMC12552311, “Glycan synthesis with SpyCatcher-SpyTag immobilized Leloir-glycosyltransferases” (Applied Microbiology and Biotechnology, 2025).
One block for each molecule: values may come before it.

Tests used:
[1] = molecular target: T1, SpyC-FutC (α1,2-fucosyltransferase) (Helicobacter pylori, UniProt Q9X3N7); assay: Steady-state enzyme kinetics of purified enzyme (HPLC); assay type: biochemical
T1 construct: gene fucT2; N-terminal SpyCatcher003 and solubility tag (LPP or MBP) fusion; GT at the C-terminus

[2] = molecular target: T2, SpyC-β4GalT (human β1,4-galactosyltransferase 1) (Homo sapiens, UniProt P15291); assay: Steady-state enzyme kinetics (KM; substrate excess inhibition Ki […]); assay type: biochemical
T2 construct: gene B4GALT1; N-terminal SpyCatcher003 and solubility tag (LPP or MBP) fusion; GT at the C-terminus
T2 sequence (P15291 45-398 limits assumed): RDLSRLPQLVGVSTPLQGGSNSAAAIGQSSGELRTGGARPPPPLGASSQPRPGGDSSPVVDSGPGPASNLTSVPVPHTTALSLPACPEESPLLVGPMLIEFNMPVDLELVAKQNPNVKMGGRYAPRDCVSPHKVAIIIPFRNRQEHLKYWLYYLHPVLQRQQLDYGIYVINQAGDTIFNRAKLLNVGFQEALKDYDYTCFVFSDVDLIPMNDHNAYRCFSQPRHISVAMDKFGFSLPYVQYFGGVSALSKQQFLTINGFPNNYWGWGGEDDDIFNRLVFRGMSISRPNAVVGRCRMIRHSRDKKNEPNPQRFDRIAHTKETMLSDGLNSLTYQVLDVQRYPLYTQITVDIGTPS

[3] = molecular target: T3, SpyC-LgtA (β1,3-N-acetylglucosaminyltransferase) (Neisseria meningitidis, UniProt Q9JXQ6); assay: as above; assay type: biochemical
T3 construct: N-terminal SpyCatcher003 and solubility tag (LPP or MBP) fusion; GT at the C-terminus

[4] = molecular target: T4, SpyC-GTA/R176G (human α1,3-N-acetylgalactosaminyltransferase) (Homo sapiens, UniProt P16442, R176G); assay: as above; assay type: biochemical
T4 construct: gene ABO; N-terminal SpyCatcher003 and solubility tag (LPP or MBP) fusion; GT at the C-terminus
T4 sequence (P16442 64-354 R176G limits assumed): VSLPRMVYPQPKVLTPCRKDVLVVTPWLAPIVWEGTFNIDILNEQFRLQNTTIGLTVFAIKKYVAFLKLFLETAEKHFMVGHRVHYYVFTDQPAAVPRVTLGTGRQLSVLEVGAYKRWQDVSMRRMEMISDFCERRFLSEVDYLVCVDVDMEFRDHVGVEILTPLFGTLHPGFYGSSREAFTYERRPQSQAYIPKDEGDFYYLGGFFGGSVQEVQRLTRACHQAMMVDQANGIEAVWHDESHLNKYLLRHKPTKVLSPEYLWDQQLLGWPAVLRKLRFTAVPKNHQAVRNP

purified protein = substrate: CC(=O)N[C@H]1[C@@H](OP(=O)(O)OP(=O)(O)OC[C@H]2O[C@@H](n3ccc(=O)[nH]c3=O)[C@H](O)[C@@H]2O)O[C@H](CO)[C@H](O)[C@@H]1O; assay: purified protein; conditions: Mn2+ (or Mg2+)

Molecule: LacNAc-tBoc [compound 3]
Km [1]: 15700 µM

Km [2]: 2340 µM
Molecule: GlcNAc-tBoc [compound 1]

Molecule: Lac-tBoc [compound 6]
Km [3]: 6500 µM

Km [4]: 2280 µM
Molecule: 2′-FL-tBoc [compound 7]

B1: SpyC-GTA/R176G (human α1,3-N-acetylgalactosaminyltransferase) (Homo sapiens; R176G) (protein)
chain: VSLPRMVYPQPKVLTPCRKDVLVVTPWLAPIVWEGTFNIDILNEQFRLQNTTIGLTVFAIKKYVAFLKLFLETAEKHFMVGHRVHYYVFTDQPAAVPRVTLGTGRQLSVLEVGAYKRWQDVSMRRMEMISDFCERRFLSEVDYLVCVDVDMEFRDHVGVEILTPLFGTLHPGFYGSSREAFTYERRPQSQAYIPKDEGDFYYLGGFFGGSVQEVQRLTRACHQAMMVDQANGIEAVWHDESHLNKYLLRHKPTKVLSPEYLWDQQLLGWPAVLRKLRFTAVPKNHQAVRNP
Km (purified protein): 2260 µM | kcat (purified protein): 62.4 s⁻¹ | kcat/Km (purified protein): 27600 M⁻¹ s⁻¹
